Read-outs that look alike come from different tables or passages of the source.
What was measured:
NSCLC cancer patients [1] = test: Response of NSCLC patients to TARCEVA therapy by 5B7/3C6 category (Example 7); type: in vivo, human; settings: 150 mg/day orally
Experimental: (§1) Tissue arrays containing biopsy samples from at least 100 NSCLC cancer patients are obtained. Each patient is treated with TARCEVA™ (EGFR inhibitor) therapy with a dosage of 150 mg/day given orally. Each patient has post-therapy follow-up for up to 5 years. Each biopsy sample is fixed in 10% NBF and paraffin embedded. Five (5) micron sections of each biopsy sample are cut and arrayed on positively charged glass slides. The slides are stained with an RD-binding molecule (e.g., clone 5B7) and an ED-binding molecule (e.g., clone 3C6) according to the protocols in Example 2. The resulting stained array slides are scored by light microscopy by a pathologist according to the following criteria:
(§2) The score for each case is recorded in a database comparing the score for each binding molecule (e.g., 5B7 or 3C6). Approximately 65% of cases are expected to fall into category 1, 19% in category 2, <1% in category 3 and 15% in category 4. Patient outcome is directly related to the scoring category as indicated in Table 2 for an ID-based therapy.

NSCLC cancer patients [2] = test: Response of NSCLC patients to IRESSA therapy by 5B7/3C6 category (Example 6); type: in vivo, human; settings: 250 mg/day orally
Experimental: as §1, with “IRESSA™ (EGFR-inhibitor)” for “TARCEVA™ (EGFR inhibitor)”, “250” for “150”
as §2

HCC cancer patients = test: Response of HCC patients to IRESSA therapy by 5B7/3C6 category (Example 11); type: in vivo, human; settings: 200-500 mg/day orally
Experimental: Tissue arrays containing biopsy samples from at least 100 HCC cancer patients are obtained (see, for example, samples collected in JS 0414, “A Pilot Study of Adjuvant Therapy of Gefitinib (Iressa, ZD1839) in Patients with Resectable Hepatocellular Carcinoma”, ClinicalTrials.gov Identifier No. NCT00228501). Each patient is treated with IRESSA™ (EGFR-inhibitor) therapy with a dosage of 200-500 mg/day given orally. Each patient has post-therapy follow-up for at least 12 months. Each biopsy sample is fixed in a standard fixative (e.g., 10% NBF) and paraffin embedded. Sections of each biopsy sample (e.g., 5 μm thick) are cut and arrayed on positively charged glass slides. The slides are stained with an RD-binding molecule (e.g., clone 5B7) and an ED-binding molecule (e.g., clone 3C6) according to the protocols in Example 2. The resulting stained array slides are scored by light microscopy by a pathologist according to the following criteria:
The score for each case is recorded in a database comparing the score for each binding molecule (e.g., 5B7 or 3C6). Approximately 60% of cases are expected to fall into category 1, 13% in category 2, 5% in category 3 and 22% in category 4. Patient outcome is directly related to the scoring category as indicated in Table 2 for an ID-based therapy.

[3] = system: non-small cell lung cancer; settings: cited from earlier work
breast cancer patients = test: Response of breast cancer patients to lapatinib therapy by 5B7/3C6 category (Example 10); type: in vivo, human; settings: 1250-1500 mg/day orally
Experimental: Tissue arrays containing biopsy samples from at least 100 breast cancer patients are obtained. Each patient is treated with lapatinib (TYKERB™) (HER1 (EGFR)/HER2-inhibitor) with a dosage of 1250-1500 mg/day given orally. Each patient has post-therapy follow-up for at least 20 months. Each biopsy sample is fixed in a standard fixative and paraffin embedded. Sections of each biopsy sample (e.g., 5 μm thick) are cut and arrayed on positively charged glass slides. The slides are stained with an RD-binding molecule (e.g., clone 5B7) and an ED-binding molecule (e.g., clone 3C6) according to the protocols in Example 2. The resulting stained array slides are scored by light microscopy by a pathologist according to the following criteria:
The score for each case is recorded in a database comparing the score for each binding molecule (e.g., 5B7 or 3C6). Approximately 20% of cases are expected to fall into category 1, 16% in category 2, 3% in category 3 and 61% in category 4. Patient outcome is directly related to the scoring category as indicated in Table 2 for an ID-based therapy.

clone 5B7 = test: Peptide inhibition study (epitope mapping) on EGFR-positive lung squamous cell carcinoma; type: binding; settings: 1000-fold molar excess of peptide, pre-incubated 1 hour at room temperature
Description: The epitope for the EGFR regulatory-domain-specific monoclonal antibody, clone 5B7, was mapped by peptide inhibition studies. Because the L2G Peptide was used as the immunogen and was used to screen for positive clones, it was known that the 5B7 epitope must be within that 19-amino acid sequence (see SEQ ID NO: 2). The L2G Peptide, a peptide containing the 13 C-terminal amino acid residues of the L2G Peptide, and a peptide containing the six N-terminal amino acid residues of the L2G Peptide plus three additional N-terminal residues (i.e., QIS) corresponding to the respective positions in the human EGFR sequence. The peptides were synthesized by Genemed Synthesis, Inc. (South San Francisco, Calif.).
A known EGFR-positive lung squamous cell carcinoma was chosen for the peptide inhibition study. The 5B7 antibody was pre-incubated with each peptide for 1 hour at room temperature before application to the tissue. A 1000-fold molar excess of peptide compared to antibody was used.

[4] = NSCLC patients in categories 1 and 3
[5] = NSCLC patients in categories 2 and 4

Question: With `C#Cc1cccc(Nc2ncnc3cc(OCCOC)c(OCCOC)cc23)c1` [erlotinib] as the molecule, how does the “patient response to therapy” value (NSCLC cancer patients [1]; [4]) read?
Answer: objective response

Question: And the “patient response to therapy” value (NSCLC cancer patients [1]; [5])?
Answer: not significantly respond

Question: For `COc1cc2ncnc(Nc3ccc(F)c(Cl)c3)c2cc1OCCCN1CCOCC1` [gefitinib], which “patient response to therapy” value (NSCLC cancer patients [2]; [4]) is on record?
Answer: objective response

Question: And the “patient response to therapy” value (NSCLC cancer patients [2]; [5])?
Answer: not significantly respond

Question: And the “patient response to therapy” value (HCC cancer patients; HCC patients in categories 1 and 3)?
Answer: objective response

Question: What about the “patient response to therapy” value (HCC cancer patients; HCC patients in categories 2 and 4) of the same molecule?
Answer: not significantly respond

Question: What about the “NSCLC patients who responded to the drug” value ([3]; 250 gefitinib per day) of the same molecule?
Answer: about 10%

Question: And the “NSCLC patients who responded to the drug” value ([3]; 500 gefitinib per day)?
Answer: about 20%

Question: For `CS(=O)(=O)CCNCc1ccc(-c2ccc3ncnc(Nc4ccc(OCc5cccc(F)c5)c(Cl)c4)c3c2)o1` [lapatinib], which “patient response to therapy” value (breast cancer patients; breast cancer patients in categories 1 and 3) is on record?
Answer: objective response

Question: And the “patient response to therapy” value (breast cancer patients; breast cancer patients in categories 2 and 4)?
Answer: not significantly respond

Question: With “LDNPDYQQDFFPKEAKPNG (listed as Homo sapiens) [Peptide 3]” as the molecule, how does the “inhibition of 5B7 binding to tissue” value (clone 5B7) read?
Answer: completely inhibited

Question: With “Peptide 1: amino acids 1164-1175 of SEQ ID NO: 1 (QISLDNPDYQQD; listed as Homo sapiens)” as the molecule, how does the “inhibition of 5B7 binding to tissue” value (clone 5B7) read?
Answer: partial inhibition

Question: With “Peptide 2: amino acids 7-19 of SEQ ID NO: 2; 13 C-terminal amino acid residues of the L2G Peptide (QQDFFPKEAKPNG; listed as Homo sapiens)” as the molecule, how does the “inhibition of 5B7 binding to tissue” value (clone 5B7) read?
Answer: complete inhibition

— US8329421B2, “Methods of predicting response of a neoplasm to an EGFR inhibitor and detecting interactions between EGFR and an EGFR regulatory protein” (Ventana Medical Systems, Inc., priority 2007, dated 2012)
